Laboratory results: article PMC10499793 (Nature Communications, 2023)

Legend:
Settings in all cases: 4-nitrothiophenol as nucleophile; 400 μM thiamine; pH 7.2, 37 °C
CbThi1 = target: T1, CbThi1 (Clostridium botulinum, UniProt A5HZW3)
T1 construct: gene CBO0770

AcThi1 = target: T2, AcThi1 (Archangium violaceum, UniProt A0ACG8CQS0); experiment: thiaminase I activity assay, 4-nitrothiophenol consumption at […] nm; format: biochemical
T2 construct: gene JRI60_22580
T2 sequence (A0ACG8CQS0 24-424): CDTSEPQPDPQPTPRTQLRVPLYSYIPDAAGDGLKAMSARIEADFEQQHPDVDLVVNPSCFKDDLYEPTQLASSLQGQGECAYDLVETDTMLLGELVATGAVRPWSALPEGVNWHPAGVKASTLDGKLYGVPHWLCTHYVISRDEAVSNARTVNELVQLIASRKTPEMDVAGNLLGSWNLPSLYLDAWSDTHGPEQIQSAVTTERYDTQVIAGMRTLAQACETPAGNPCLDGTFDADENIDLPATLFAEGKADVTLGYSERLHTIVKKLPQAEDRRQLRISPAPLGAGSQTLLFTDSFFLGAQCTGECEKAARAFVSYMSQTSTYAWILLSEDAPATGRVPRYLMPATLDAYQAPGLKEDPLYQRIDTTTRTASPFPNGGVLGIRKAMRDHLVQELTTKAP

MxThi1 = target: T3, MxThi1 (Myxococcus xanthus, UniProt Q1D3T2); experiment: as above; format: biochemical
T3 construct: gene MXAN_4523
T3 sequence (Q1D3T2 36-418): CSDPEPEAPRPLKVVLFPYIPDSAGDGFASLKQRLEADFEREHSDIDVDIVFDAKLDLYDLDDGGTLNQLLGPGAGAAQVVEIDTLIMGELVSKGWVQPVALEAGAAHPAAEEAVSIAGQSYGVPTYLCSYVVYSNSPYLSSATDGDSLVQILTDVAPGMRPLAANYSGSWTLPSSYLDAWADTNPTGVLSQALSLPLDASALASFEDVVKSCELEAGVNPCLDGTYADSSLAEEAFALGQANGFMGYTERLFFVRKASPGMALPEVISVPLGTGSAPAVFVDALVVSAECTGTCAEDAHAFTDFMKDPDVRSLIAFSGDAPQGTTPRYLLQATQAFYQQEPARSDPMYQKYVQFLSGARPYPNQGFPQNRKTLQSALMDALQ

T1 sequence (A5HZW3 32-404 limits assumed): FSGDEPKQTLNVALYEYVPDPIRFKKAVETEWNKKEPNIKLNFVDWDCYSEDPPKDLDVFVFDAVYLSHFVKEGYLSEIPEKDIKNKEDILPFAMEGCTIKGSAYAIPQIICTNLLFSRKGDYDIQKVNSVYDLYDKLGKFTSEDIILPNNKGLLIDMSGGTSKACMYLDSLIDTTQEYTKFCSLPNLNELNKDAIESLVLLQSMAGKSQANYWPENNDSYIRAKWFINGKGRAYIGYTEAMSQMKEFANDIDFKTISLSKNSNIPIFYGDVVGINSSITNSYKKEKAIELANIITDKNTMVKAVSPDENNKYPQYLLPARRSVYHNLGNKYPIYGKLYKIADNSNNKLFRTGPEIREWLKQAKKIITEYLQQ

`Cc1ncc(C[n+]2csc(CCO)c2C)c(N)n1` [thiamine] was tested, and the “thiaminase I activity assay, 4-nitrothiophenol consumption at 411 nm” value (from here on “thiaminase I activity assay”) (CbThi1) was “All these recombinant proteins exhibited thiaminase I activity”, the “thiaminase I activity assay” value (AcThi1) was “All these recombinant proteins exhibited thiaminase I activity” and the “thiaminase I activity assay” value (MxThi1) was “All these recombinant proteins exhibited thiaminase I activity”.
